Results reported in the NIST ThermoML archive (doi:10.1016/j.jct.2013.06.022).
“And” between values parts separate entries of the source, which are not always exact repeats. Equal values may be shown once.

Experiments:
[1] = Crystal; for vapor or sublimation pressure: Calculated from knudsen effusion weight loss; for Normal melting temperature: DTA
[2] = Molar enthalpy of transition or fusion; conditions: Crystal; DSC

COc1ccccc1C(N)=O [2-methoxybenzamide]
[1]
Conditions | vapor or sublimation pressure
335.12 K | 0.0001 kPa and 0.000101 kPa
337.18 K | 0.000126 kPa and 0.000124 kPa
339.16 K | 0.000155 kPa and 0.000153 kPa
341.12 K | 0.000198 kPa and 0.000195 kPa
343.16 K | 0.000248 kPa and 0.000241 kPa and 0.000249 kPa
345.16 K | 0.000305 kPa and 0.0003 kPa and 0.000309 kPa
347.11 K | 0.000389 kPa and 0.000382 kPa and 0.000385 kPa
349.15 K | 0.000486 kPa and 0.000474 kPa and 0.000483 kPa
351.16 K | 0.000594 kPa and 0.000581 kPa
353.12 K | 0.00075 kPa and 0.000738 kPa and 0.000736 kPa
355.17 K | 0.000924 kPa and 0.000926 kPa and 0.00091 kPa
357.16 K | 0.001122 kPa and 0.001121 kPa and 0.001106 kPa

Conditions | Molar enthalpy of transition or fusion [kcal/mol] | Normal melting temperature [°C]
[1] | – | 128.51
[2] | 6.5 | –

COc1cccc(C(N)=O)c1 [3-methoxybenzamide]
[1]
Conditions | vapor or sublimation pressure
345.11 K | 7.2e-05 kPa and 7.1e-05 kPa
347.12 K | 9.2e-05 kPa and 8.8e-05 kPa
349.16 K | 0.000112 kPa and 0.000117 kPa
351.12 K | 0.000143 kPa and 0.000142 kPa
353.16 K | 0.00018 kPa and 0.000175 kPa and 0.000178 kPa
355.16 K | 0.000219 kPa and 0.000225 kPa
357.12 K | 0.000283 kPa and 0.000287 kPa and 0.000286 kPa
359.16 K | 0.000357 kPa and 0.000346 kPa
361.14 K | 0.000432 kPa and 0.000428 kPa and 0.000443 kPa
363.13 K | 0.00055 kPa and 0.000547 kPa and 0.000546 kPa
365.17 K | 0.00068 kPa and 0.000682 kPa and 0.000658 kPa
367.13 K | 0.000844 kPa and 0.000848 kPa and 0.000842 kPa
369.17 K | 0.001047 kPa and 0.001014 kPa
371.15 K | 0.001291 kPa and 0.001251 kPa and 0.00125 kPa

Conditions | Molar enthalpy of transition or fusion [kcal/mol] | Normal melting temperature [°C]
[1] | – | 134.00
[2] | 6.84 | –

COc1ccc(C(N)=O)cc1 [4-methoxybenzamide]
[1]
Conditions | vapor or sublimation pressure
357.12 K | 0.000103 kPa
359.19 K | 0.000128 kPa and 0.000124 kPa
361.16 K | 0.000156 kPa and 0.000154 kPa
363.12 K | 0.000195 kPa and 0.000193 kPa
365.2 K | 0.000242 kPa and 0.000238 kPa
367.16 K | 0.000292 kPa and 0.00029 kPa and 0.000299 kPa
369.12 K | 0.000366 kPa and 0.000368 kPa and 0.000367 kPa
371.18 K | 0.000455 kPa and 0.000442 kPa and 0.000452 kPa
373.15 K | 0.000548 kPa and 0.000535 kPa and 0.000556 kPa
375.11 K | 0.000689 kPa and 0.000681 kPa and 0.000685 kPa
377.18 K | 0.000833 kPa and 0.000838 kPa and 0.000812 kPa
379.15 K | 0.001012 kPa and 0.000985 kPa and 0.000979 kPa

Conditions | Molar enthalpy of transition or fusion [kcal/mol] | Normal melting temperature [°C]
[1] | – | 167.49
[2] | 6.94 | –
